Test results as given in patent US11185551B2, “Peripherally-restricted dual-acting kappa and delta opioid agonist for analgesia in pain states involving the inflammatory response” (Caventure Drug Discovery, Inc., priority 2017, dated 2021).

Assays:
[1] = test system: osteolytic bone cancer pain induced by MRMT-1 inoculation; assay: MRMT-1 model of osteolytic bone cancer pain in the rat (percent weight bearing score); format: in vivo, female Sprague-Dawley rats
Description: Osteolytic bone cancer was produced by an injection of 3000 mammary gland carcinoma cells (MRMT-1) into the intramedullary space of the tibia. Animals received either vehicle or Compound 1 (10 mg/kg) intraperitoneally on Day 0. Morphine (6 mg/kg) served as the positive control for this study and was administered via subcutaneous injection. Bone cancer pain was assessed by measuring hind limb percent weight bearing scores (percent WBS) prior to inoculation (study day −21), and prior to administration (BL), 1, 2, and 4 hours after administration on Day 0.
Hind limb weight bearing scores (WBS) are measured using a Linton Incapacitance Tester (Stoelting Co.©, Wood Dale, Ill.; see Medhurst, S. J., K. Walker, M. Bowes, B. L. Kidd, M. Glatt, M. Muller, M. Hattenberger, J. Vaxelaire, T. O'Reilly, G. Wotherspoon, J. Winter, J. Green, and L. Urban. “A Rat Model of Bone Cancer Pain.” Pain 96 (2002): 129-40). Animals were allowed to acclimate to the testing room for a minimum of 15 minutes before testing. Animals are placed in an acrylic test chamber. When the animal is in the correct position in the test chamber an evaluation of force was taken, with the evaluation measuring the average force exerted individually by each hind paw over a three second interval. Three evaluations of force per animal are taken at each time point. The percent WBS for the injured leg is calculated for each evaluation of force using the following formula: […]
The mean of the 3% WBS values is taken as the % WBS for that time point. The mean and standard error of the mean (SEM) are determined for each treatment group at each time point.
Dosing: The volume of test or negative control article injected was 5 mL/kg via intraperitoneal injection or 2 mL/kg via subcutaneous injection for morphine. The animals were dosed in sequence based on animal number, so that the distribution of treatment across a given set of animals was not predictable (Table 7).

[2] = test system: CFA-induced mechanical hyperalgesia; assay: CFA model of rheumatoid arthritis pain in rats (joint compression thresholds); format: in vivo, male Sprague-Dawley rats; settings: for improvement of compression thresholds vs vehicle: 30 mg/kg PO
Description: Following IACUC approval and acclimation, inflammatory arthritis pain was induced in 55 male, Sprague-Dawley rats by intracapsular injection of 50 μL of 100% complete Freund's adjuvant (CFA) into the tibio-tarsal joint of the left hind leg. Mechanical hyperalgesia was assessed via joint compression thresholds (JCTs), JCTs were determined prior to CFA injection and 14 days post-CFA, prior to study article administration. At that time, 50 animals that met the inclusion criterion were randomly assigned to 5 groups with 10 animals per group (Table 3). To further confirm the validity as a model for arthritic pain, the anti-inflammatory cyclooxygenase-2 inhibitor, celecoxib, was used as an active control.
(§1) Animals were administered a single dose of test or control compound on day 0 (i.e., 14 days after administration of CFA) and thresholds were determined 1, 2, and 4 hours after compound administration. JCTs in test compound-treated animals were compared to those in vehicle-treated animals to determine the analgesic efficacy of the test compound. All behavioral evaluations were performed by a blinded observer.
Mechanical hyperalgesia was measured using a digital Randall-Selitto device (dRS; IITC Life Sciences©; Woodland Hills, Calif.; see Randall, L. O., and J. J. Selitto, “A Method for Measurement of Analgesic Activity on Inflamed Tissue.” Arch. Int. Pharmcodyn. 11 (1957): 409-19). Animals were allowed to acclimate to the testing room for a minimum of 15 minutes before testing. Animals were placed in a restraint sling that suspended the animal, leaving the hind limbs available for testing. The stimulus was applied to the ankle joint by a blunt tip and pressure was applied gradually over approximately 10 seconds. Joint compression threshold values were recorded at the first observed nocifensive behavior (vocalization, struggle, or withdrawal). One reading per joint was taken at each time point, and a maximum stimulus cutoff of 500 grams was used to prevent injury to the animal. The mean and standard error of the mean (SEM) were determined for ipsilateral and contralateral joints for each treatment group at each time point.
All testing was performed in a blinded manner, with all experimenters involved in the study being unaware of the group assignment of any animal they were testing. Animals were assigned to treatment groups based on Day 0 pre-dosing JCTs so that group means of the ipsilateral JCTs were approximately equal. Animals were ranked by ipsilateral JCT and treatments assigned randomly within stratified sub-groups according to the total number of treatment groups in the study. The volume of test or control article injected was 5 mL/kg. The animals were dosed in sequence based on animal number so that the distribution of treatment across a given set of animals was not predictable.

[3] = test system: formalin-evoked spontaneous nociceptive behaviors; assay: Formalin model of pain in mice; format: in vivo, C57BL6 mice
Description: The objective of this study was to evaluate the effects of Compound 1 and a peripherally-restricted kappa agonist (ICI204448) on formalin-evoked spontaneous nociceptive behaviors in mice. The study was performed by video recording of formalin-induced nociceptive behavior and then off-line scoring using a computer.
Subcutaneous plantar injection of formalin causes a bi-phasic nocifensive behavioral response in rodents. The early phase (phase 1) lasts for about 5-10 minutes, following which an interphase occurs without any discernible nociceptive reactions, after which the late phase (phase 2) nociceptive reaction ensues continuing from about 20-60 min following formalin injection. Thus, phase 2 of the formalin model is a model of continuously present, persistent pain, and is widely used for rapid screening of novel analgesic compounds. The model encompasses inflammatory, neurogenic and central mechanisms of nociception, and the late phase (phase 2), in particular, is considered as a pharmacodynamic surrogate of central sensitization.
In the present study, the effects of Compound 1 and ICI204448 were assessed from 0-5 minutes for the early phase (phase 1) and from 20-35 minutes for the late phase (phase 2) of formalin-induced nociceptive behavior.
Following IACUC approval and acclimation C57BL6 mice (Charles River Canada Inc.), 20-30 g, were randomly assigned into groups with 8 mice per group as provided in Table 1:
All animals were acclimated to the observation chamber for about 15 minutes immediately prior to formal in injection. […]
Following injection of the formalin all animals were returned immediately to the observation chamber and formalin-evoked spontaneous nociceptive behaviors in the mice were continuously recorded for 0-40 minutes using a commercial camcorder. […]
Scoring from the recorded video files were done off-line using a computer by a blinded observer who has been validated to score such nociceptive behaviors in rodents. The total (cumulative) time spent in a 5-minute bin was recorded using a stop-watch for the following nociceptive behaviors: biting and licking of the formalin-injected paw.
Effects of the ICI204448 or Compound 1 were assessed in the following time periods: 0-5 minutes for the early phase (phase 1) and 20-35 minutes for the late phase (phase 2).
Mice were injected with formalin in the hind paw after pretreatment with vehicle, high and low doses of a peripherally-restricted kappa opioid agonist (ICI204448) and high and low doses of the peripherally-restricted Compound 1. Pain was measured for 35 minutes after injection. Additionally, urine output was measured using metabolic cages in each group of mice. […]

[4] = test system: SNL-induced mechanical hyperalgesia; assay: Spinal nerve ligation (SNL) model for neuropathic pain in the rat (paw compression thresholds); format: in vivo, male Sprague-Dawley rats
Description: Following IACUC approval and acclimation, neuropathy was induced in 55 male, Sprague-Dawley rats by surgically ligating the 5th and 6th lumbar spinal nerves (L5 and L6), a procedure also known as spinal nerve ligation (SNL). Mechanical sensitivity was assessed via paw compression thresholds using a digital Randall-Selitto device. Thresholds were determined prior to surgery and 15 days post-surgery, prior to study article administration. At that time, 50 animals that met the inclusion criteria were assigned to 5 groups with 10 animals per group (Table 5). To further confirm the validity as a model for neuropathic pain, gabapentin was used as an active control.
as §1, with “15” for “14”, “SNL)” for “administration of CFA)”, “Response thresholds” for “JCTs”
Mechanical hyperalgesia was measured using a digital Randall-Selitto device (dRS; IITC Life Sciences©; Woodland Hills, Calif.) (see Randall, L. O., and J. J. Selitto. “A Method for Measurement of Analgesic Activity on Inflamed Tissue.” Arch. Int. Pharmcodyn. 11 (1957): 409-19). Animals were allowed to acclimate to the testing room for a minimum of 15 minutes before testing. Animals were placed in a restraint sling that suspends the animal, leaving the hind limbs available for testing. The stimulus was applied to the plantar surface of the hind paw by a cone-shaped tip and pressure was applied gradually over approximately 10 seconds. Paw compression threshold values were recorded at the first observed nocifensive behavior (vocalization, struggle, or withdrawal). One reading per paw was taken at each time point, and a maximum stimulus cutoff of 300 grams was used to prevent injury to the animal. The mean and standard error of the mean (SEM) were determined for ipsilateral and contralateral paws for each treatment group at each time point.
All testing was performed in a blinded manner, with all experimenters involved in the study being unaware of the group assignment of any animal they were testing.
Animals were assigned to treatment groups based on Day 0 pre-dosing dRS paw compression thresholds so that group means of the ipsilateral paw compression thresholds were approximately equal. Animals were ranked by ipsilateral paw compression threshold measurement from lowest to highest and treatments assigned randomly within stratified sub-groups according to the total number of treatment groups in the study.
The volume of test or control article injected was 5 mL/kg. The animals were dosed in sequence based on animal number, so that the distribution of treatment across a given set of animals was not predictable.

CN1CC[C@]23c4c5ccc(O)c4O[C@H]2[C@@H](O)C=C[C@H]3[C@H]1C5 [Morphine]
reversal of hind limb weight bearing asymmetry vs pre-dosing baseline ([1]; 6 mg/kg subcutaneous, 1 and 2 hours): time-dependent reversal of hind limb weight bearing asymmetry | improvement in weight-bearing ([1]; 6 mg/kg subcutaneous, 4-hours): did not produce significant improvement

Cc1ccc(-c2cc(C(F)(F)F)nn2-c2ccc(S(N)(=O)=O)cc2)cc1 [Celecoxib, reference compound]
improvement of compression thresholds vs vehicle ([2]; 1-hour): did not significantly improve thresholds | improvement of compression thresholds vs vehicle ([2]; 2-hour and 4-hour): did show improvement compared to vehicle

CC(C)C[C@H]1CN2C(=CC3=NC[C@H](C(C)C)N3C[C@@H]2Cc2ccc(O)cc2)N1CCc1ccccc1 [Compound 1, 4-(((2S,5S,8S)-2-isobutyl-8-isopropyl-1-phenethyl-2,3,5,6,8,9-hexahydro-1H-diimidazo[1,2-d:2′,1′-g][1,4]diazepin-5-yl)methyl)phenol]
reversal of hind limb weight bearing asymmetry vs pre-dosing baseline ([1]; 10 mg/kg IP, 4 hours): significant reversal of hind limb weight bearing asymmetry | reversal of mechanical hyperalgesia (JCT) ([2]; 1 mg/kg IP, 2-hour and 4-hour): significantly reversed mechanical hyperalgesia | reversal of mechanical hyperalgesia (JCT) ([2]; 5 mg/kg IP, 2-hour and 4-hour): significantly reversed mechanical hyperalgesia | reversal of mechanical hyperalgesia (JCT) ([2]; 10 mg/kg IP, 1, 2, and 4 hours post dose): significantly reversed mechanical hyperalgesia | reversal in mechanical hyperalgesia compared with active control ([2]; Compound 1 IP vs celecoxib 30 mg/kg PO): comparable to the active control, celecoxib | pain behaviors, effect of low dose ([3]; 1 mg/kg IP, phase 2, compared with ICI204448 10 mg/kg): the same effect as a high dose of ICI204448 | pain response, effect of high dose ([3]; 10 mg/kg IP, phase 2): complete elimination of the pain response | time spent on pain (nociceptive) behaviors vs ICI204448 ([3]; 30-35 minutes, Compound 1 dose less than 10% of ICI204448 on a molar basis): at least as effective as ICI204448 | pain behaviors (biting and licking of formalin-injected paw) ([3]; IP 30 min before formalin, 20-25, 25-30, 30-35 minutes (phase 2), compared with vehicle and ICI204448): reduced pain behaviors | reversal of SNL-induced mechanical hyperalgesia ([4]; 1 mg/kg IP, any time point tested (1, 2, 4 hours)): did not significantly reverse SNL-induced mechanical hyperalgesia | reversal of SNL-induced mechanical hyperalgesia ([4]; 5 mg/kg IP, 1-hour): did not significantly reverse SNL-induced mechanical hyperalgesia | reversal of SNL-induced mechanical hyperalgesia ([4]; 5 mg/kg IP, 2-hour and 4-hour): did significantly reverse SNL-induced mechanical hyperalgesia | reversal of SNL-induced mechanical hyperalgesia ([4]; 10 mg/kg IP, 1-hour): did not significantly reverse SNL-induced mechanical hyperalgesia | reversal of SNL-induced mechanical hyperalgesia ([4]; 10 mg/kg IP, 2-hour and 4-hour): did significantly reverse SNL-induced mechanical hyperalgesia | reversal of mechanical hyperalgesia compared with active control ([4]; Compound 1 5 mg/kg and 10 mg/kg vs gabapentin 100 mg/kg): did not differ significantly from the active control, gabapentin

NCC1(CC(=O)O)CCCCC1 [Gabapentin, reference compound]
reversal of SNL-induced mechanical hyperalgesia ([4]; 100 mg/kg IP, 1, 2, and 4-hours): significantly reversed SNL-induced mechanical hyperalgesia
